In patent US20220324835A1 (Nurix Therapeutics, Inc., priority 2018, published 2022):
Read-outs that look alike come from different tables or passages of the source.

What was measured:
Type in all cases: cell-based
[1] = tested on: primary human total T-cells; assay: T-cell activation assessed by cytokine secretion (GM-CSF, IFNγ, TNFα)
From the text: (§1) Peripheral blood mononuclear cells (PBMC) were obtained either: 1) by using Ficoll-Paque™ (GE Healthcare) for separation of peripheral blood hematopoietic cells from buffy coats of healthy human donors; or 2) directly from FeukoPak donations. Total human primary T-cells were isolated from the PMBCs utilizing negative selection with commercial kits following the manufacturer's protocol (Miltenyi Catalog #130-096-535 (i.e., cocktail of antibodies against surface markers CD14, CD15, CD16, CD19, CD34, CD36, CD56, CD123 and CD235a are incubated with the PBMCs before passing the samples by magnetic beads for removal of cells expressing those surface markers) or StemCells Catalog #17951) to yield >95% CD3+ cells as assessed by flow cytometry. For measurement of cell proliferation, cells were labeled with Cell Trace Violet (Invitrogen) following manufacturer's protocol prior to activation by stimulation with anti-CD3 antibody alone or in combination with anti-CD28 antibody. The Cbl-b inhibitor was added to 1×10^5 cells per well at multiple concentrations (e.g., 10 μM, 1.11 μM, or 0.123 μM) with a final DMSO concentration of <0.1%. The plate was incubated for one hour at 37° C. in 5% CO2. Following incubation with the Cbl-b inhibitor, primary human total T-cells were stimulated with either plate bound anti-CD3 antibody (OKT3) alone or plate bound anti-CD3 antibody (OKT3) with soluble anti-CD28 antibody (28.2) (Life Technologies). To prepare plates with plate bound anti-CD3 antibody (OKT3), 96-well round bottom tissue culture plates were coated with 100 μl of anti-CD3 antibody (OKT3) at 10 μg/mL for 4 hours at 37° C. 5% CO2 in phosphate buffered saline (PBS). The plates were washed with PBS prior to adding the cells with or without soluble anti-CD28 antibody (28.2) to each well at a final concentration of 5 μg/mL. Cells were stimulated for 48 hours prior to harvesting the cell free supernatant and staining the cell population for surface marker assessment by flow cytometry. Supernatants were analyzed for cytokine secretion (e.g., GM-CSF, IFNγ and TNFα) by ELISA (R&D Systems, Peprotech or Life Technologies) or Luminex multiplex kits (Procarta Life Technologies) following manufacturer's protocol. Cells were stained with anti-CD69 (BD Biosciences) to assess levels of surface markers of activation. Proliferation was measured by flow cytometry and data was analyzed with FlowJo v7.6.5 or v10. Readouts were reported as fold change over baseline. In some embodiments, baseline was the measurement obtained from total human T-cells stimulated with anti-CD3 antibody alone, wherein the cells were not incubated with a Cbl-b inhibitor. In some embodiments, baseline was the measurement obtained from total human T-cells stimulated with anti-CD3 antibody and anti-CD28 antibody, where the cells were not incubated with a Cbl-b inhibitor.
(§2) Cbl-b inhibitors were tested to determine their ability to induce or enhance secretion of cytokines from T-cells (e.g., GM-CSF, IFNγ and TNFα) and/or surface expression of cell surface markers on T-cells (e.g., CD69) that is indicative of T-cell activation. Cbl-b inhibitors were also tested to determine their ability to induce or enhance T-cell proliferation. Cbl-b inhibitors were tested for their effects on T-cell activation in the presence of costimulation and where conditions were suboptimal for priming.
(§3) Readouts for T-cell activation were reported as fold change over baseline. Baseline for this study was the measurement obtained from total human T-cells stimulated with anti-CD3 antibody alone or anti-CD3 antibody in combination with soluble anti-CD28 antibody, where the cells were not incubated with a Cbl-b inhibitor. For T-cells stimulated with anti-CD3/anti-CD28 or with anti-CD3 alone changes greater than 1,2-fold over baseline for % positive CD69 staining and greater than 2-fold over baseline for % total proliferating cells were considered a significant and positive response (Table 4a). […]

[2] = tested on: primary human total T-cells; assay: T-cell activation assessed by CD69 expression
From the text: as §1, §2, §3

primary human NK cells = assay: NK cell activation assessed by cytokine secretion (coculture with K562 NucRed target cells); conditions: for fold induction at 0.625 µM: 0.625 μM compound; for fold induction at 2.5 µM: 2.5 μM compound
Outline: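 Read-out is cytokine secretion (IFNγ, TNFα, MIP1β; ELISA or Luminex) as fold over coculture without inhibitor, >2.0-fold taken as positive. Donor NK cells, IL-2 primed (60 ng/mL) overnight, received compound 1 h ahead (e.g. 0.1–10 μM, DMSO <0.1%) and were mixed 6 h with K562 NucRed targets at e.g. 5:1, 1:1, 1:5.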

[3] = CD3/CD28 stimulation, read-out: GM-CSF secretion
[4] = CD3/CD28 stimulation, read-out: IFNγ secretion
[5] = CD3/CD28 stimulation, read-out: TNFα secretion
[6] = CD3 alone stimulation, read-out: GM-CSF secretion
[7] = CD3 alone stimulation, read-out: IFNγ secretion
[8] = CD3 alone stimulation, read-out: TNFα secretion
[9] = CD3/CD28 stimulation, CD4 T-cells, read-out: % CD69+ (CD4)
[10] = CD3/CD28 stimulation, CD8 T-cells, read-out: % CD69+ (CD8)
[11] = CD3 alone stimulation, CD4 T-cells, read-out: % CD69+ (CD4)
[12] = CD3 alone stimulation, CD8 T-cells, read-out: % CD69+ (CD8)
[13] = K562, NK cells cocultured with K562 NucRed, 1:1 E/T, read-out: IFNγ secretion, fold change over baseline
[14] = K562, NK cells cocultured with K562 NucRed, 1:1 E/T, read-out: TNFα secretion, fold change over baseline
[15] = K562, NK cells cocultured with K562 NucRed, 1:1 E/T, 10 μM compound, read-out: IFNγ secretion, fold change over baseline
[16] = K562, NK cells cocultured with K562 NucRed, 1:1 E/T, 10 μM compound, read-out: TNFα secretion, fold change over baseline

Row | Structure (SMILES) | fold induction at 1.11 µM [1, 3] | fold induction at 1.11 µM [1, 4] | fold induction at 1.11 µM [1, 5] | fold induction at 10 µM [1, 3] | fold induction at 10 µM [1, 4] | fold induction at 10 µM [1, 5] | fold induction at 1.11 µM [1, 6] | fold induction at 1.11 µM [1, 7] | fold induction at 1.11 µM [1, 8] | fold induction at 10 µM [1, 6] | fold induction at 10 µM [1, 7] | fold induction at 10 µM [1, 8] | fold induction at 1.11 µM [2, 9] | fold induction at 10 µM [2, 9] | fold induction at 1.11 µM [2, 10] | fold induction at 10 µM [2, 10] | fold induction at 1.11 µM [2, 11] | fold induction at 10 µM [2, 11] | fold induction at 1.11 µM [2, 12] | fold induction at 10 µM [2, 12] | further results
1 | C[C@H](Cc1nncn1C)c1cccc(NC(=O)c2cccc(C(F)(F)F)n2)c1 [Compound 183a, (R)-N-(3-(1-(4-methyl-4H-1,2,4-triazol-3-yl)propan-2-yl)phenyl)-6-(trifluoromethyl)picolinamide] | 2.01 to 4 | 2.01 to 3 | 2.01 to 4 | > 4 | > 4 | 2.01 to 4 | 1.51 to 2 | 2.01 to 3 | ≤ 1.5 | 2.01 to 4 | > 4 | 1.51 to 2 | 1.2 to 1.4 | 1.4 to 1.6 | 1.2 to 1.4 | 1.2 to 1.4 | 1.4 to 1.6 | > 1.6 | 1.2 to 1.4 | 1.4 to 1.6 | fold induction at 0.625 µM (primary human NK cells; [13]): 2.01 to 5; fold induction at 0.625 µM (primary human NK cells; [14]): 1.01 to 2; fold induction at 2.5 µM (primary human NK cells; [13]): 2.01 to 5; fold induction at 2.5 µM (primary human NK cells; [14]): 2.01 to 5; fold induction at 10 µM (primary human NK cells; [15]): 2.01 to 5; fold induction at 10 µM (primary human NK cells; [16]): 2.01 to 5
2 | C[C@H](Cc1nncn1C)c1cccc(NC(=O)c2n[nH]c3c2CCC3)c1 [Compound 313, (R)-N-(3-(1-(4-Methyl-4H-1,2,4-triazol-3-yl)propan-2-yl)phenyl)-1,4,5,6-tetrahydrocyclopenta[c]pyrazole-3-carboxamide] | ≤ 1.5 | < 2 | ≤ 1.5 | 2.01 to 4 | 2.01 to 3 | 2.01 to 4 | ≤ 1.5 | 2.01 to 3 | ≤ 1.5 | 1.51 to 2 | < 2 | ≤ 1.5 | 1.4 to 1.6 | 1.2 to 1.4 | 1.2 to 1.4 | 1.2 to 1.4 | > 1.6 | 1.2 to 1.4 | 1.4 to 1.6 | ≤ 1.2 | fold induction at 0.625 µM (primary human NK cells; [13]): < 1; fold induction at 0.625 µM (primary human NK cells; [14]): 1.01 to 2; fold induction at 2.5 µM (primary human NK cells; [13]): 1.01 to 2; fold induction at 2.5 µM (primary human NK cells; [14]): 1.01 to 2; fold induction at 10 µM (primary human NK cells; [15]): 2.01 to 5; fold induction at 10 µM (primary human NK cells; [16]): 1.01 to 2
3 | Cc1cc(C(=O)Nc2cccc([C@H](C)Cc3nncn3C)c2)nc(C2CC2)n1 [Compound 195, (R)-2-cyclopropyl-6-methyl-N-(3-(1-(4-methyl-4H-1,2,4-triazol-3-yl)propan-2-yl)phenyl)pyrimidine-4-carboxamide] | > 4 | 2.01 to 3 | 2.01 to 4 | > 4 | > 4 | > 4 | 2.01 to 4 | 2.01 to 3 | 1.51 to 2 | 2.01 to 4 | > 4 | 1.51 to 2 | ≤ 1.2 | > 1.6 | ≤ 1.2 | 1.2 to 1.4 | ≤ 1.2 | > 1.6 | ≤ 1.2 | 1.4 to 1.6 | fold induction at 1 µM (primary human NK cells; K562, 1:1 E/T, read-out: IFNγ secretion): 2.01 to 5; fold induction at 1 µM (primary human NK cells; K562, 1:1 E/T, read-out: MIP1β secretion): 1.01 to 2; fold induction at 1 µM (primary human NK cells; K562, 1:1 E/T, read-out: TNFα secretion): 2.01 to 5; fold induction at 10 µM (primary human NK cells; K562, 1:1 E/T, 10 μM, read-out: IFNγ secretion): 2.01 to 5; fold induction at 10 µM (primary human NK cells; K562, 1:1 E/T, 10 μM, read-out: MIP1β secretion): 2.01 to 5; fold induction at 10 µM (primary human NK cells; K562, 1:1 E/T, 10 μM, read-out: TNFα secretion): 2.01 to 5; fold induction at 1 µM (primary human NK cells; K562, 5:1 E/T, read-out: IFNγ secretion): 2.01 to 5; fold induction at 1 µM (primary human NK cells; K562, 5:1 E/T, read-out: MIP1β secretion): 2.01 to 5; fold induction at 1 µM (primary human NK cells; K562, 5:1 E/T, read-out: TNFα secretion): 2.01 to 5; fold induction at 10 µM (primary human NK cells; K562, 5:1 E/T, 10 μM, read-out: IFNγ secretion): > 5; fold induction at 10 µM (primary human NK cells; K562, 5:1 E/T, 10 μM, read-out: MIP1β secretion): 2.01 to 5; fold induction at 10 µM (primary human NK cells; K562, 5:1 E/T, 10 μM, read-out: TNFα secretion): > 5; fold induction at 0.625 µM (primary human NK cells; [13]): 2.01 to 5; fold induction at 0.625 µM (primary human NK cells; [14]): 1.01 to 2; fold induction at 2.5 µM (primary human NK cells; [13]): 2.01 to 5; fold induction at 2.5 µM (primary human NK cells; [14]): 2.01 to 5; fold induction at 10 µM (primary human NK cells; [15]): > 5; fold induction at 10 µM (primary human NK cells; [16]): 2.01 to 5
4 | Cc1cc(C(=O)Nc2cccc(C3(Cc4nncn4C)COC3)c2)nc(C2CC2)n1 [Compound 336, 2-cyclopropyl-6-methyl-N-(3-(3-((4-methyl-4H-1,2,4-triazol-3-yl)methyl)oxetan-3-yl)phenyl)pyrimidine-4-carboxamide] | 2.01 to 4 | 2.01 to 3 | 2.01 to 4 | > 4 | > 4 | 2.01 to 4 | 2.01 to 4 | 2.01 to 3 | 1.51 to 2 | 2.01 to 4 | > 4 | 1.51 to 2 | 1.4 to 1.6 | 1.4 to 1.6 | 1.2 to 1.4 | 1.2 to 1.4 | 1.4 to 1.6 | > 1.6 | 1.2 to 1.4 | 1.4 to 1.6 | fold induction at 0.625 µM (primary human NK cells; [13]): 2.01 to 5; fold induction at 0.625 µM (primary human NK cells; [14]): 1.01 to 2; fold induction at 2.5 µM (primary human NK cells; [13]): > 5; fold induction at 2.5 µM (primary human NK cells; [14]): 2.01 to 5; fold induction at 10 µM (primary human NK cells; [15]): > 5; fold induction at 10 µM (primary human NK cells; [16]): 2.01 to 5
